These results are taken from patent US7220740B2, “1,4-diazabicyclo[3.2.2]nonabenzoxazole, -benzothiazole and benzimidazole derivatives, preparation and therapeutic use thereof” (Sanofi-aventis, priority 2000, dated 2007).

The structures appear in SMILES notation.

As usually defined, the melting point is the temperature of the solid-liquid transition. With `O=[N+]([O-])c1ccc2oc(N3CCN4CCC3CC4)nc2c1`, the melting point was 158 to 160 °C.
